Results published in PubChem BioAssay AID1361 (SRMLSC, 2008).
Activity calls are given as the source filed them. The rule behind the calls is not given here.

Assay: mitochondrial fusion inhibitors, confirmation, cell-based, chemical genetic, wild-type and mutant (AID 1361)
Conditions: Cell-based mitochondrial fusion phenotype, imaging
[1] = mutant cells, measured here: mutant cell line IC50

Row | SMILES | IC50 (WT cells) | IC50 [1] [µM]
1 | CN1CC(=O)Nc2ccc(F)cc2C1=O | > 25 µM (inactive) | > 25
2 | CCS(=O)(=O)Nc1cccc(-c2cc(-c3ccccc3)c3cc(C)ccc3n2)c1 | 6.46 µM | > 25
3 | O=C(N1CCOCC1)N1CCN(C(c2ccccc2)c2ccccc2)CC1 | > 25 µM (inactive) | > 25
4 | CCOC(=O)C1CCCN(C(=O)CS(=O)(=O)Cc2ccccc2)C1 (stereo not drawn) | > 25 µM (inactive) | > 25
5 | CCN1CCc2nc(NC(=O)c3ccccc3)sc2C1 | > 25 µM (inactive) | > 12.5
6 | CCc1ccc(C2=CC(c3cc(Br)ccc3F)n3ncnc3N2)cc1 (stereo not drawn) | 23.7 µM | > 25
7 | Cc1oc(-c2ccccc2F)nc1CN1CCC(C(=O)NCCC2=CCCCC2)CC1 | > 25 µM (inactive) | > 25
8 | CC(C)C(=O)Nc1cc(S(=O)(=O)Nc2ccc(Cl)cc2)ccc1Cl | 22 µM | > 25
9 | Cc1cnc(C(=O)OCC(=O)Nc2ccc(Cl)cc2)cn1 | > 25 µM (inactive) | > 12.5
10 | CC(C)(C)Nc1nc(SCc2ccccc2)nc(N2CCOCC2)n1 | 17.3 µM | > 25
11 | CC1CN(c2oc(Cc3cccc4ccccc34)nc2C#N)CC(C)O1 (stereo not drawn) | > 25 µM (inactive) | > 25
12 | CC(C)Cn1c(CN(Cc2ccccc2)Cc2ccccc2)nc2c1c(=O)n(C)c(=O)n2C | 11.5 µM | > 25
13 | C/C(=N\NC(=S)NCc1ccccc1)c1ccc2ccccc2c1OC(F)F | 7.44 µM | 25
14 | CCCCCCP(=O)(O)c1ccccc1 | > 25 µM (inactive) | > 25
15 | CC(C)CC(=O)NC(=S)N(Cc1ccccc1)Cc1ccccc1 | 19.2 µM | > 25
16 | Cn1c(=O)c2c(nc(N3CCCCCC3)n2Cc2cccc3ccccc23)n(C)c1=O | 10 µM | > 25
17 | CCCCCOC(=O)c1ccc(NC(=O)c2ccco2)cc1 | 12.4 µM (inactive) | 10.5
18 | COc1ccc(S(=O)(=O)N2c3ccccc3OCC2C(C)(C)C)cc1 (stereo not drawn) | 18.5 µM | > 25
19 | CNc1oc(C)nc1S(=O)(=O)c1ccc(C)cc1 | > 25 µM (inactive) | > 25
20 | COC(=O)c1c(NC(=O)CN2CCC3(O)CCCCC3C2c2cc(OC)ccc2OC)sc(C)c1C (stereo not drawn) | 8.13 µM | > 25
21 | COc1ccc(NC(=S)Nc2ccc(OCc3ccccc3)cc2)c(OC)c1 | 17.4 µM | 24.9

Row | SMILES | IC50 (WT cells) | IC50 [1] [µM]
22 | COCCN(C(=S)Nc1cccc(C)c1)C(C)c1cccs1 (stereo not drawn) | 23.7 µM | > 25
23 | CCOC(=O)c1sc(NC(=O)/C=C/c2cnn(CC)c2C)c(C(=O)OCC)c1C | > 25 µM (inactive) | > 25
24 | O=C(CCC1N=C2c3ccccc3N=C(SCc3cccc(Cl)c3)N2C1=O)NCc1ccco1 (stereo not drawn) | > 25 µM (inactive) | > 25
25 | O=C(C1=C[C@@H](c2csc3ccccc23)C[C@@H](OCc2ccc(CO)cc2)O1)N1CCN(Cc2ccccc2)CC1 | 5.83 µM | > 25
26 | CCn1c(CNC(=O)c2ccco2)nnc1SCC(=O)Nc1cc(C(F)(F)F)ccc1Cl | > 25 µM (inactive) | > 25
27 | COc1cccc(-c2nc(OC(C)C)c3ccccc3n2)c1 | > 25 µM (inactive) | > 25
28 | CCC(C)Nc1c([N+](=O)[O-])cc(C)cc1[N+](=O)[O-] (stereo not drawn) | > 25 µM (inactive) | > 25
29 | CCCn1c(CN(Cc2ccccc2)Cc2ccccc2)nc2c1c(=O)n(C)c(=O)n2C | 20.6 µM | > 25
30 | CCOC(=O)c1c(C)[nH]c(C)c1C(=O)COC(=O)c1cc2ccccc2cc1O | 17.2 µM | > 25
31 | O=C(Cc1ccc(Cl)cc1)Nc1ccccc1CO | > 25 µM (inactive) | > 25
32 | COc1c(F)c(F)c(C(=O)O)c(Nc2ccccc2C)c1F | > 25 µM (inactive) | > 25
33 | COc1cc(CNCCO)cc(Br)c1OCc1ccccc1Cl | > 25 µM (inactive) | 23.8
34 | CCOC(=O)c1[nH]c2ccc(OC)cc2c1NC(=O)C(C)N1CCC2(CC1)OCCO2 (stereo not drawn) | > 25 µM (inactive) | > 25
35 | Nc1ccc2nn(-c3ccccc3)nc2c1 | > 25 µM (inactive) | > 25
36 | Cc1ccc(Cl)cc1N1CCN(CC(=O)NC2CCCc3ccccc32)CC1 (stereo not drawn) | 11.6 µM | 23.7
37 | Cc1ccc(NNC(=S)Nc2ccc(C(C)C)cc2)c(C)c1 | 15.3 µM | > 25
38 | O=C(Nc1cccc(Cl)c1N1CCCC1)c1ccc(Br)o1 | 18.1 µM | > 25
39 | Cc1ccc(C)c(N2CCN(C(=O)Cc3cn(C)c4ccccc34)CC2)c1 | 21.9 µM | > 25
40 | Cc1ccccc1OCC(=O)Nc1ccccc1N1CCC(C)CC1 | 16.1 µM | > 25
41 | Cc1cc(NC(=O)C2CCCCC2)nc2c1c(=O)oc1ccccc12 | 19.4 µM | 23.8
42 | O=S(=O)(NCCOCCNS(=O)(=O)c1ccccc1)c1ccccc1 | > 25 µM (inactive) | > 25

Row | SMILES | IC50 (WT cells) | IC50 [1] [µM]
43 | C/C(=N\N1CCCCC1c1cccnc1)c1c(O)n(C2CCCCC2)c(=S)[nH]c1=O (stereo not drawn) | > 25 µM (inactive) | > 25
44 | CCN(CC)S(=O)(=O)c1cccc(C(=O)Nc2sc3c(c2C(N)=O)CCCC3)c1 | > 25 µM (inactive) | > 25
45 | CC/C(=C\C1CCCCC1)C(NP(=O)(c1ccccc1)c1ccccc1)c1ccccc1 (stereo not drawn) | 7.6 µM | > 25
46 | CCOc1ccccc1N1CCN(C(=O)Nc2ccc(Cl)c(Cl)c2)CC1 | 20.9 µM (inactive) | > 12.5
47 | Cc1nn(C(C)C(=O)NCC2CCCO2)c(=O)c2cc3occc3n12 (stereo not drawn) | > 25 µM (inactive) | > 25
48 | COc1ccc(-c2cc3nc(C)cc(N4CC(C)CC(C)C4)n3n2)cc1 (stereo not drawn) | 17.8 µM | 19.4
49 | COc1ccc(CCn2nnnc2C(CC(C)C)N2CCN(c3ncccn3)CC2)cc1OC (stereo not drawn) | > 25 µM (inactive) | > 25
50 | Cc1ccc(-c2nn(-c3ccccc3)cc2CSC(=N)N)cc1 | > 25 µM (inactive) | > 25
51 | COc1cc(CNn2cn[nH]c2=S)cc(Cl)c1OCc1ccc(F)cc1 | 21.2 µM | > 25
52 | CN(C)c1ccc(S(=O)(=O)c2ccc(Cl)cc2)cc1 | > 25 µM (inactive) | > 25
53 | CCC(C)c1ccccc1NC(=O)COC(=O)c1ccc2[nH]c3c(c2c1)CCCC3 (stereo not drawn) | 9.98 µM | > 25
54 | c1ccc2c(c1)sc1nnnn12 | > 25 µM (inactive) | > 25
55 | COc1ccccc1/C=C/C=N\N1CCN(Cc2ccccc2Cl)CC1 | 20.9 µM | > 25
56 | Cc1cc(Cl)ccc1OC(C)C(=O)Nc1ccccc1N1CCOCC1 (stereo not drawn) | 21.1 µM | > 25
57 | CC1CCCN(C(=O)N2c3ccccc3Sc3ccccc32)C1 (stereo not drawn) | 18.8 µM | > 25
58 | CCOc1cc(C2Nc3ccccc3C(=O)N2c2ccccc2OC)ccc1O (stereo not drawn) | > 25 µM (inactive) | > 25
59 | C(=N\Nc1nc(N2CCCCCC2)nc(N2CCCCCC2)n1)/c1ccccc1 | 9.35 µM | > 25
60 | Cc1ccc(NC(=S)Nc2ccc(C(C)C)cc2)cc1S(=O)(=O)N1CCCCCC1 | 15 µM | > 25
61 | CCOC(=O)c1sc2nc(CSc3ccccc3)nc(N3CCC(C(N)=O)CC3)c2c1C | > 25 µM (inactive) | > 25
62 | O=C(COC(=O)C1(c2ccc(Cl)cc2)CCCC1)Nc1ncc(C(F)(F)F)cc1Cl | 18.2 µM | > 25
63 | Oc1ccccc1-c1nc(/C=C/c2ccccc2)nn1-c1ccccc1 | 11.2 µM | 15.4

Row | SMILES | IC50 (WT cells) | IC50 [1] [µM]
64 | C/C(CCN1CCc2nc(-c3ccccc3)c(-c3ccccc3)cc2C1)=N\OC[C@@H](C)[C@H](OCc1ccccc1)C(C)C | > 25 µM (inactive) | > 25
65 | CCCn1c2c(c(O)c(C(=O)Nc3nccs3)c1=O)CCCC2 | 12.7 µM | > 25
66 | CC1(C(=O)N(Cc2ccccc2)Cc2ccccc2)CC1(Br)Br (stereo not drawn) | 15.7 µM | > 25
67 | CC(C)(C)N/N=C1\CC(c2ccccc2)Oc2ccccc21 (stereo not drawn) | 14.5 µM | > 25
68 | COCCN(C(=S)Nc1c(C)cc(C)cc1C)C(C)c1cccs1 (stereo not drawn) | 23.3 µM | > 25
69 | Fc1cccc(-c2cc3nc4c(c(N5CCC6(CC5)OCCO6)n3n2)CCCC4)c1 | > 25 µM (inactive) | > 25
70 | CCCC1(CCC)NC(=O)N(CC(=O)Nc2cccc(OC)c2)C1=O | > 25 µM (inactive) | > 25
71 | CC1CCN(c2nc(-c3cccnc3)nc3scc(-c4ccccc4)c23)CC1 | 13.1 µM | > 25
72 | N#CC(C#N)=c1ccc2c(c1)N1C3=C(CCCC3)CC3CCCCC31N=2 (stereo not drawn) | 3.41 µM | 7.81
73 | O=C(/C=C/Nc1cccc(C(F)(F)F)c1)C(F)(F)F | > 25 µM (inactive) | > 25
74 | COC(=O)CNC(=O)CNC(=O)c1nn(-c2ccc(OC)c(Cl)c2)c(=O)c2ccccc12 | > 25 µM (inactive) | > 25
75 | C=CCOc1ccc2ccccc2c1CNCCCN1CCOCC1 | > 25 µM (inactive) | > 25
76 | Cc1cccc(-n2c(CCc3ccccc3)nnc2SCC(=O)c2ccccc2)c1 | 20.6 µM | > 25
77 | CC1(c2ccc([N+](=O)[O-])cc2)CC(C)(C)N(C(=O)c2ccccc2)c2ccccc21 (stereo not drawn) | 1.71 µM | 4.04
78 | O=C(O)C1C2C=CC(C2)C1C(=O)Nc1ccc(C(=O)N2CCCCC2)cc1 (stereo not drawn) | > 25 µM (inactive) | > 25
79 | CC1CN(c2ncnc3c2c(-c2ccccc2)cn3-c2ccc(F)cc2)CC(C)O1 (stereo not drawn) | 21.4 µM | > 25
80 | O=C1N(O)C2(C=CCCC2)/C(=N\O)C12CCCCC2 (stereo not drawn) | > 25 µM (inactive) | > 25
81 | CCN1CCN(CCNC(=O)c2ccc(/C=C3\Sc4ccccc4N(Cc4ccccc4F)C3=O)cc2)CC1 | 18.9 µM (inactive) | > 12.5
82 | CSc1nncn1/N=C/c1ccc2c(c1)OCO2 | > 25 µM (inactive) | > 25
83 | N#CCc1ccc(NS(=O)(=O)c2ccc(C3CCCCC3)cc2)cc1 | 22.8 µM | > 25
84 | CC(C)(C)c1ccc(S(=O)(=O)Nc2ccc(Cc3ccncc3)cc2)cc1 | 23.3 µM | > 25
